Measurements reported in US9168301B2 (NATIONAL TSING HUA UNIVERSITY, priority 2011, dated 2015).
Where two headings read alike, the source gives them in different places.

Assays:
[1] = Protocol: The serum biochemical parameters of the rats were monitored by drawing blood samples from the rats' tail veins once before the tumor implantation, and weekly after the tumor implantation. When a rat was sacrificed, a blood sample was also drawn from its heart. Whole blood was collected from a rat and held in a serum separation tube (Vacationer, Franklin Lakes, N.J., USA), then centrifuged for 15 minutes at 3000 rpm, followed by preserving the serum upper clean solution by freezing. Afterwards, the College of Veterinary Medicine of National Chung Hsing University was commissioned with the task of analyzing the serum biochemical parameters of this solution, in which a serum biochemical analyzer (Chiron Diagnostics Corporation, Oberlin, Ohio, USA) was utilized to analyze concentrations of the serum enzymes related to liver and kidney functions.
[2] = tested on: N1-S1 rat hepatoma liver tumor
Protocol: The implantation of tumor cells: before anesthesia, the SD rats were subcutaneously injected with 0.1 mg/kg bw of Atropine, so as to inhibit the secretion of respiratory tract and salivary gland caused by anesthetics, and prevent bradycardia resulted from the overactivity of vagus nerve. After administering Atropine for 10-15 minutes, the rats were intraperitoneally injected with 20-40 mg/kg bw of Zoletil 50 and 10 mg/kg bw of Xylazine to anesthetize and sedate the animals. After the anesthetia, the subxiphoid incision was done to allow for tumor implantation. A surgical area on the rat was shaved and disinfected with 75% alcohol and iodine, and then a 3-cm incision was made along the midline of thin layer; the muscle layer was elevated to make an opening smaller than the skin layer, and both sides of the rat's abdomen was gently pressed to reveal the liver. A 29 G syringe was loaded with the N1-S1 tumor cell suspension in advance, and then used to slowly inject the suspension into a hepatic lobe of the rat; each of the rats were injected with 6×10^6 cell/0.1 mL of the suspension. After the implantation, the peritoneum was stitched back with an absorbable suture, before using a nylon suture to stitch back the skin layer. The operated rats were then released back into the cage, and their activities and survival were continuously monitored.
A commercial ultrasound scanner (TOSHIBA Xario) was used to scan the liver tumors, and a linear probe (PLT-1204BT) was used because it imparts better resolution; the frequency of the scanning was set at 14 MHz. After the anesthesia, the experimental animals were subjected to B-mode ultrasound imaging, so as to confirm whether the induction and growth of the tumors. […] Sagittal sections and transverse sections were obtained for the experimental animals before the BNCT treatment, and on the 10th, 30th, 60th, and 80th day after the BNCT treatment, in order to estimate the size of the tumors, and also combined Doppler mode with 3D imaging to evaluate the distribution of vasculature in the tumors, as well as the relative position of the tumors in the abdominal cavities.
The experimental animals were divided into three groups; a normal group (which was made up of normal rats), a tumor comparison group (in which the rats received the implantation of tumor cells but not the BNCT treatment), and a BNCT treatment group; the BNCT treatment group was divided into subgroups of rats that received different physical doses of irradiation.
The rats implanted with the N1-S1 tumor cells were subjected to the BNCT treatment on the 17th day after the implantation. […] At 15 minutes before the irradiation, the rats were injected with Atropine and Zoletil to allow for longer anesthesia. Each of the rats were placed on a fixing frame with its tumor-bearing area close to the beam aperture of the Tsing Hua Open-pool Reactor (THOR), and then different duration of neutron irradiation was performed under a specific neutron flux, in order to acquire a specific irradiation dose. After the irradiation, an on-line neutron monitoring system for the THOR was used to confirm the actual irradiation dose.
The tumor was scanned by using a commercial ultrasound scanner (TOSHIBA Xario), and the scanning frequency was set at 14 MHz. […] Ultrasound imaging was used to track growths or disappearances of the tumors, as well as changes in the blood vessels surrounding the tumors within 80 days of the BNCT treatment. The 2D mode of ultrasound imaging was employed to confirm the status of a tumor, and sagittal and transverse sections were obtained to estimate the size of the tumor, and the Doppler mode was combined with 3D imaging to evaluate the distribution of vasculature in the tumor, as well as in surroundings thereof.

[3] = tested on: GS-9L, U-343MGa, HeLa, V79, and B16 cells; conditions: cited from earlier work
[4] = liver tumor-bearing SD rats, 25 mg B/kg bw one-shot i.v., n = 12
[5] = 4 hours after the injection
Protocol: Before measuring boron concentration of a sample, it needs to undergo microwave digestion first. A sample was initially placed into a Teflon high-pressure digestion vessel, then added with 3 mL of concentrated nitric acid (14N, 65%) and 0.5 mL of hydrogen peroxide (30-35%), and the vessel was sealed before placing the vessel into a microwave digestion system (MLS 1200 Milestone, Italia) for sample decomposition. […] The sample subsequently turned into a clear solution after complete digestion. After diluting the sample with deionized water, an Inductively Coupled Plasma Atomic Emission Spectrometer (ICP-AES, OPTIMA 2000 DV, PerkinElmer Instruments) was used to measure the boron concentration of the sample. For the conditions of the analysis, the temperature of argon plasma was set at 6000-7000 K; the analytical wavelength was set at 249.773 nm, and the liquid uptake rate was set at approximately 2 mL/min; the operating voltage after the formation of plasma was set at 40 V.

[6] = injection dose 60 mg of 10B stable isotope per kilogram of human body weight; cited from earlier work
[7] = 4 days after the BNCT treatment
[8] = G2, day −1 (before BNCT, baseline)
[9] = G3, day −1 (before BNCT, baseline)

OB(O)O [boric acid]
histopathological section of the testis [1, 7]: did not show any abnormalities | change of GPT after the BNCT treatment ([1]; BNCT treatment group): returned to normal | change in BUN (kidney function) ([1]; BNCT treatment group, one month after the BNCT treatment): did not show any meaningful changes | clinical signs after BNCT ([1]; BNCT treatment groups): slight diarrhea and appetite loss | lowest body weight relative to the initial weight ([1]; G1 (11.18 Gy), 8 days after the irradiation): 78% | GOT (AST), serum ([1]; G1 (11.18 Gy), day −1 (before BNCT, baseline), normal 83-118): 250 ± 148 U/L | BUN, serum ([1]; G1, day 11 after BNCT): 15 ± 7 mg/dL | GOT (AST), serum ([1]; G1, day 11 after BNCT): 202 ± 127 U/L | GPT (ALT), serum ([1]; G1, day 11 after BNCT): 39 ± 13 U/L | BUN, serum ([1]; G1, day 30 after BNCT): 14 ± 1 mg/dL | GOT (AST), serum ([1]; G1, day 30 after BNCT): 111 ± 29 U/L | GPT (ALT), serum ([1]; G1, day 30 after BNCT): 50 ± 5 U/L | BUN, serum ([1]; G1, day 80 after BNCT): 17 ± 3 mg/dL | GOT (AST), serum ([1]; G1, day 80 after BNCT): 127 ± 8 U/L | GPT (ALT), serum ([1]; G1, day 80 after BNCT): 54 ± 4 U/L | BUN, serum ([1]; G1, day −1 (before BNCT, baseline), normal 11-17): 16 ± 2 mg/dL | GPT (ALT), serum ([1]; G1, day −1 (before BNCT, baseline), normal 35-47): 54 ± 7 U/L | lowest body weight relative to the initial weight ([1]; G2 (7.97 Gy), 4 days after the irradiation): 89% | GOT (AST), serum ([1]; G2 (7.97 Gy), day −1 (before BNCT, baseline)): 271 ± 39 U/L | BUN, serum ([1]; G2, day 11 after BNCT): 13 ± 2 mg/dL | GOT (AST), serum ([1]; G2, day 11 after BNCT): 204 ± 9 U/L | GPT (ALT), serum ([1]; G2, day 11 after BNCT): 45 ± 15 U/L | BUN, serum ([1]; G2, day 30 after BNCT): 17 ± 5 mg/dL | GOT (AST), serum ([1]; G2, day 30 after BNCT): 144 ± 20 U/L | GPT (ALT), serum ([1]; G2, day 30 after BNCT): 57 ± 3 U/L | BUN, serum ([1]; G2, day 80 after BNCT): 16 ± 2 mg/dL | GOT (AST), serum ([1]; G2, day 80 after BNCT): 116 ± 8 U/L | GPT (ALT), serum ([1]; G2, day 80 after BNCT): 62 ± 13 U/L | BUN, serum [1, 8]: 12 ± 1 mg/dL | GPT (ALT), serum [1, 8]: 56 ± 9 U/L | lowest body weight relative to the initial weight ([1]; G3 (5.61 Gy), 3 days after the irradiation): 92% | GOT (AST), serum ([1]; G3 (5.61 Gy), day −1 (before BNCT, baseline)): 168 ± 19 U/L | BUN, serum ([1]; G3, day 11 after BNCT): 15 ± 3 mg/dL | GOT (AST), serum ([1]; G3, day 11 after BNCT): 180 ± 8 U/L | GPT (ALT), serum ([1]; G3, day 11 after BNCT): 53 ± 4 U/L | BUN, serum ([1]; G3, day 30 after BNCT): 14 ± 3 mg/dL | GOT (AST), serum ([1]; G3, day 30 after BNCT): 153 ± 3 U/L | GPT (ALT), serum ([1]; G3, day 30 after BNCT): 55 ± 6 U/L | BUN, serum ([1]; G3, day 80 after BNCT): 18 ± 3 mg/dL | GOT (AST), serum ([1]; G3, day 80 after BNCT): 133 ± 41 U/L | GPT (ALT), serum ([1]; G3, day 80 after BNCT): 58 ± 12 U/L | BUN, serum [1, 9]: 13 ± 1 mg/dL | GPT (ALT), serum [1, 9]: 50 ± 10 U/L | change of liver enzyme GOT after the BNCT treatment ([1]; all three subgroups of the BNCT treatment group): decreased rapidly | radiation damage in pancreases and spleens, tissue histopathological sections ([1]; liver tumor-bearing rats after BNCT with 10B-boric acid): did not show radiation damage | radiation effect in the testis ([1]; one month after the BNCT irradiation, degree related to irradiation dose): atrophy of seminiferous tubules | testis effect ([1]; only rats that received 11.18 Gy (G1)): clear testicular atrophy | reduction of tumor size ([2]; 30th day after BNCT treatment): approximately 90% | histopathology of tumor cells, high magnification [2, 7]: shrunk in size, become hollow, broken down and dead | tumor shrinkage ratio (ultrasound) ([2]; G1 (11.18 Gy), 30 days after BNCT): 0.94 ± 0.01 | tumor shrinkage ratio (ultrasound) ([2]; G1 (11.18 Gy), 60 days after BNCT): 0.94 ± 0.02 | tumor shrinkage ratio (ultrasound) ([2]; G1 (11.18 Gy), 80 days after BNCT): 0.95 ± 0.02 | tumor shrinkage ratio (ultrasound) ([2]; G1 (tumor physical dose 11.18 Gy), boric acid 25 mg 10B/kg i.v., 11 days after BNCT, 0 = initial size, 1 = vanished): 0.64 ± 0.07 | distribution of blood flow surrounding the tumor (Doppler imaging) ([2]; G1, G2 and G3, 8th, 12th, 18th day after BNCT): gradually decreased until it could no longer be detected | tumor shrinkage ratio (ultrasound) ([2]; G2 (7.97 Gy), 30 days after BNCT): 0.89 ± 0.05 | tumor shrinkage ratio (ultrasound) ([2]; G2 (7.97 Gy), 60 days after BNCT): 0.86 ± 0.07 | tumor shrinkage ratio (ultrasound) ([2]; G2 (7.97 Gy), 80 days after BNCT): 0.91 ± 0.05 | tumor shrinkage ratio (ultrasound) ([2]; G2 (tumor physical dose 7.97 Gy), 11 days after BNCT): 0.62 ± 0.1 | tumor shrinkage ratio (ultrasound) ([2]; G3 (5.61 Gy), 30 days after BNCT): 0.77 ± 0.06 | tumor shrinkage ratio (ultrasound) ([2]; G3 (5.61 Gy), 60 days after BNCT): 0.83 ± 0.08 | tumor shrinkage ratio (ultrasound) ([2]; G3 (5.61 Gy), 80 days after BNCT): 0.87 ± 0.04 | tumor shrinkage ratio (ultrasound) ([2]; G3 (tumor physical dose 5.61 Gy), 11 days after BNCT): 0.48 ± 0.42 | liver cancer in the rats after BNCT with 10B-boric acid ([2]; liver tumor-bearing rats): completely disappeared | smallest tumor, size relative to the original size ([2]; one month after the BNCT treatment): 6% | tumor size relative to the original tumor size ([2]; three subgroups G1-G3, one month after the BNCT treatment): less than or equal to 22% | new growth or recurrence of the tumors (ultrasound tracking) ([2]; up to 80 days after the BNCT treatment): did not reveal any new growth or recurrence of the tumors | accumulation efficiency in the cells ([3]; previous studies): 1 | ratio of boron concentrations intracellularly and extracellularly ([3]; simple or passive diffusion): 1 | Cmax, highest drug concentration in blood [4]: 104.6 ± 36.23 ppm | difference between the boron concentrations in the tumors and the normal liver cells [5]: insignificant | adverse effect of injected boric acid [6]: no permanent adverse effect
